Read-outs that look alike come from different tables or passages of the source.
Test: Pharmacokinetics in plasma of rats after oral and intravenous dosing; oral bioavailability
Assay type: in vivo, Sprague Dawley rats
Procedure: The pharmacokinetics of disclosed compounds were determined in the plasma of rats after oral and intravenous dosing, with the results presented in Table 13.
Animals. Male Sprague Dawley rats were used in these studies. Animals were randomly assigned to treatment groups and were fasted overnight before oral dosing.
Drugs. The test compound was dissolved in 10% captisol (1) or 10% DMSO and 90% normal saline (2a) and administered intravenously (iv) at 2 mg/kg (1) or 1 mg/kg (2a) or orally (po) at 10 mg/kg (1) or 1 mg/kg (2a), calculated based on freebase, and at a volume of 10 mL/kg body weight for oral administration and 5 mL/kg for IV administration. The compounds were tested as the racemates.
Sample Collection and Bioanalysis. Blood samples were collected through the external jugular vein (via cannulation) at 0.083, 0.25, 0.5, 1, 2, 4, 8, and 24 h post-dose (total 8 time points/rat, 4 rats per administration route). At each time point, ~0.2 mL of blood was withdrawn and transferred into a pre-labeled 0.5-mL micro centrifuge tube containing 4 μL of 200 mM K2EDTA solution as anticoagulant and mixed gently by inverting the tube to facilitate mixing of anticoagulant with the blood. Blood samples were kept on ice until centrifugation. The collected blood samples were centrifuged at 4,000 rpm for 10 min at 4° C. Plasma samples were separated after centrifugation, transferred into pre-labeled tubes, and stored at −70° C. until bioanalysis. For bioanalysis, a 200-μL aliquot of internal standard prepared in acetonitrile (cetirizine, 50 ng/mL) was added (except for blank, where 200 μL of acetonitrile was added) to a 96-well Solvinert filter plate followed by 5 μL of a study plasma sample or spiked calibration standard. The filter plate was then centrifuged for 5 minutes at a speed of 2,500 rpm at 4° C. with a 96-well sample collection plate. Following centrifugation, collected samples were analyzed using a fit-for-purpose LC-MS/MS method, with authentic samples of the analyte used for calibration and identification.
Data Analysis. Pharmacokinetic parameters were estimated using the non-compartmental analysis tool of Phoenix® WinNonlin software (Ver 8.1). The drug concentrations of samples below the lower limit of quantitation (LLOQ) were designated as zero.

Compound `CCC(N)Cc1cc(OC)c(CCCCCC(F)(F)F)cc1OC` (racemic) [Compound 2a, 1-(2,5-dimethoxy-4-(6,6,6-trifluorohexyl)phenyl)butan-2-amine] has a C0 (rat plasma, IV 1 mg/kg, racemate, 10% DMSO and 90% normal saline) of 75.9 ng/mL, an AUC(0-t) (rat plasma, IV 1 mg/kg, racemate, 10% DMSO and 90% normal saline, read-out: AUC0-last (iv)) of 90 ng·h/mL and a half-life (rat plasma, IV 1 mg/kg, racemate, 10% DMSO and 90% normal saline, read-out: t1/2 (iv) (converted)) of 2.71 h. For the same compound, the bioavailability (rat plasma, IV and PO 1 mg/kg, racemate, 10% DMSO and 90% normal saline, read-out: F (absolute oral bioavailability)) was 28%, the Cmax (rat plasma, PO 1 mg/kg, racemate, 10% DMSO and 90% normal saline, fasted) was 29.7 ng/mL and the AUC(0-t) (rat plasma, PO 1 mg/kg, racemate, 10% DMSO and 90% normal saline, fasted, read-out: AUC0-last (po)) was 25 ng·h/mL. For the same compound, the half-life (rat plasma, PO 1 mg/kg, racemate, 10% DMSO and 90% normal saline, fasted, read-out: t1/2 (po) (converted)) was 3.07 h and the “absolute oral bioavailability (F) (in words)” value (rats, 2a 1 mg/kg iv and 1 mg/kg po, 1 2 mg/kg iv and 10 mg/kg po, racemates) was “improved absolute oral bioavailability (F), compared to 1”.

— patent publication US20260347310A1, “PHENALKYLAMINES AND METHODS OF MAKING AND USING THE SAME” (GILGAMESH PHARMACEUTICALS, INC., priority 2022, published 2026)
